According to patent US10730874B2 (Shire Human Genetic Therapies, Inc., priority 2018, dated 2020):
Read-outs that look alike come from different tables or passages of the source.

Target: human activated kallikrein enzyme (plasma kallikrein) (Homo sapiens (Human), UniProt P03952)
Test: Inhibition of human activated plasma kallikrein, fluorogenic peptide substrate assay, 500 pM enzyme format
Assay type: biochemical
Settings: read-out: Primary Dose Response Assay: Average EC50
Procedure, shortened: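 Buffer 20 mM Tris pH 7.5, EDTA, NaCl, PEG-400, Triton X-100; 300 uM Pro-Phe-Arg-AMC; enzyme–inhibitor preincubation 30 min RT. Format one: 500 pM kallikrein, 10 min RT reaction; format two: 5 pM kallikrein, 18 h RT reaction. Fluorescence read at 460 nm (380 nm excitation).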

[1] = comparative compounds (Table II), assay format with 500 pM (500 μM in the source) activated kallikrein
[2] = 500 pM activated kallikrein enzyme, 300 uM Pro-Phe-Arg-7-amido-4-methylcoumarin substrate, 30 min preincubation, 10 min at RT

human activated kallikrein enzyme (plasma kallikrein), sequence (P03952 391-638): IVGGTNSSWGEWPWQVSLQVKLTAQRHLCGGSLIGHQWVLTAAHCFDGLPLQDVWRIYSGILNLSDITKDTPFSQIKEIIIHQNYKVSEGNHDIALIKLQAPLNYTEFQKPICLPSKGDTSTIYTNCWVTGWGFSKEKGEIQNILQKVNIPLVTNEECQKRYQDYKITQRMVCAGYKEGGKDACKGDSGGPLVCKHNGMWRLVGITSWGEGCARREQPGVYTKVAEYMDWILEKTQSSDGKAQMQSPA
human activated kallikrein enzyme (plasma kallikrein), sequence (P03952 20-390 partner): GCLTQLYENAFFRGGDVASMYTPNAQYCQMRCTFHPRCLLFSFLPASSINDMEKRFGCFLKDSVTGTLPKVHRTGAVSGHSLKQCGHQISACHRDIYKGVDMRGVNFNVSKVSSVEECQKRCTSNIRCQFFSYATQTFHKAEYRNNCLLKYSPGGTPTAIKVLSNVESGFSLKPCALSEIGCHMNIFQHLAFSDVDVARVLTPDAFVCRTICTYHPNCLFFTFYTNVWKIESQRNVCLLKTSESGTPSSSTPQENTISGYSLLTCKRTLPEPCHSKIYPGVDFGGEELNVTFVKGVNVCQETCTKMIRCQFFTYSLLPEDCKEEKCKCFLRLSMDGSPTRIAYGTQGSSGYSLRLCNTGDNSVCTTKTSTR

SMILES	EC50 [1] [nM]	EC50 [2] [nM]
O=C(NCc1ncn2ccc(C3CC3)cc12)c1cnn(Cc2cn3cc(C4CC4)ccc3n2)c1 [drawing 403, reference compound]	100 to 2000	–
O=C(NCc1ncn2ccc(Br)cc12)c1cnn(Cc2cn3c(Cl)c(Br)ccc3n2)c1 [Example I-40, 1-((6-bromo-5-chloroimidazo[1,2-a]pyridin-2-yl)methyl)-N-((7-bromoimidazo[1,5-a]pyridin-1-yl)methyl)-1H-pyrazole-4-carboxamide]	–	< 1
O=C(NCc1ncn2ccc(Cl)c(F)c12)c1cn(Cc2cn3ncccc3n2)nn1 [Example I-290, N-((7-chloro-8-fluoroimidazo[1,5-a]pyridin-1-yl)methyl)-1-(imidazo[1,2-b]pyridazin-2-ylmethyl)-1H-1,2,3-triazole-4-carboxamide]	–	10 to 100
O=C(NCc1ncn2ccc(Cl)cc12)c1cnn(Cc2cn3cc(C4CC4)ccc3n2)c1 [Example I-2, N-((7-chloroimidazo[1,5-a]pyridin-1-yl)methyl)-1-((6-cyclopropylimidazo[1,2-a]pyridin-2-yl)methyl)-1H-pyrazole-4-carboxamide]	–	< 1
O=C(NCc1ncn2ccc(Cl)c(F)c12)c1ccn(Cc2cn3cc(C4CC4)ccc3n2)c1 [Example I-276, N-((7-chloro-8-fluoroimidazo[1,5-a]pyridin-1-yl)methyl)-1-((6-cyclopropylimidazo[1,2-a]pyridin-2-yl)methyl)-1H-pyrrole-3-carboxamide]	–	< 1
O=C(NCc1ncn2ccc(Cl)c(F)c12)c1cn(Cc2cn3nccc(CC4COC4)c3n2)nn1 [Example I-296, N-((7-chloro-8-fluoroimidazo[1,5-a]pyridin-1-yl)methyl)-1-((8-(oxetan-3-ylmethyl)imidazo[1,2-b]pyridazin-2-yl)methyl)-1H-1,2,3-triazole-4-carboxamide]	–	10 to 100
CC(=O)c1cc(C2CC2)cn2cc(Cn3cc(C(=O)NCc4ncn5ccc(Cl)cc45)cn3)nc12 [Example I-104a, 1-((8-acetyl-6-cyclopropylimidazo[1,2-a]pyridin-2-yl)methyl)-N-((7-chloroimidazo[1,5-a]pyridin-1-yl)methyl)-1H-pyrazole-4-carboxamide]	–	< 1
O=C(NCc1ncn2ccc(Cl)cc12)c1cn(Cc2cn3cc(C4CC4)cc(C4(O)COC4)c3n2)nn1 [Example I-153, N-((7-chloroimidazo[1,5-a]pyridin-1-yl)methyl)-1-((6-cyclopropyl-8-(3-hydroxyoxetan-3-yl)imidazo[1,2-a]pyridin-2-yl)methyl)-1H-1,2,3-triazole-4-carboxamide]	–	< 1
COCc1nn(Cc2cn3cc(C4CC4)ccc3n2)cc1C(=O)NCc1ncn2ccc(Cl)cc12 [Example I-31, N-((7-chloroimidazo[1,5-a]pyridin-1-yl)methyl)-1-((6-cyclopropylimidazo[1,2-a]pyridin-2-yl)methyl)-3-(methoxymethyl)-1H-pyrazole-4-carboxamide]	–	< 1
COCc1nn(Cc2ccc(Cn3ccccc3=O)cc2)cc1C(=O)NCc1c(F)ccc(OC)c1F [reference compound]	10 to 100	–
CCOC(=O)c1cc(C2CC2)cn2cc(Cn3cc(C(=O)NCc4ncn5ccc(Cl)cc45)cn3)nc12 [Example I-71, ethyl 2-((4-(((7-chloroimidazo[1,5-a]pyridin-1-yl)methyl)carbamoyl)-1H-pyrazol-1-yl)methyl)-6-cyclopropylimidazo[1,2-a]pyridine-8-carboxylate]	–	< 1
N#Cc1cc(C2CC2)cn2cc(Cc3nnc(C(=O)NCc4ncn5ccc(Cl)c(F)c45)o3)nc12 [Example I-158, N-((7-chloro-8-fluoroimidazo[1,5-a]pyridin-1-yl)methyl)-5-((8-cyano-6-cyclopropylimidazo[1,2-a]pyridin-2-yl)methyl)-1,3,4-oxadiazole-2-carboxamide]	–	< 1
CCOC(=O)COc1cc(C2CC2)cn2cc(Cn3cc(C(=O)NCc4ncn5ccc(Cl)c(F)c45)nn3)nc12 [Example I-207, ethyl 2-((2-((4-(((7-chloro-8-fluoroimidazo[1,5-a]pyridin-1-yl)methyl)carbamoyl)-1H-1,2,3-triazol-1-yl)methyl)-6-cyclopropylimidazo[1,2-a]pyridin-8-yl)oxy)acetate]	–	< 1
O=C(NCc1ncn2ccc(Cl)cc12)c1ccnc(Cc2ccc3ncc(Cl)cc3c2)c1 [Example I-3, N-((7-chloroimidazo[1,5-a]pyridin-1-yl)methyl)-2-((3-chloroquinolin-6-yl)methyl)isonicotinamide]	–	10 to 100
O=C(NCc1ncn2ccc(Cl)c(F)c12)c1cn(Cc2cc3ncc(C4CC4)cn3n2)nn1 [Example I-209, N-((7-chloro-8-fluoroimidazo[1,5-a]pyridin-1-yl)methyl)-1-((6-cyclopropylpyrazolo[1,5-a]pyrimidin-2-yl)methyl)-1H-1,2,3-triazole-4-carboxamide]	–	1 to 10
CCOC(=O)c1nc(C(=O)NCc2ncn3ccc(Cl)c(F)c23)cn1Cc1cn2cc(C3CC3)ccc2n1 [Example I-260]	–	< 1
O=C(NCc1ncn2ccc(Cl)c(F)c12)c1cn(Cc2cc3ccc(C4CC4)cc3s2)nn1 [Example I-229, N-((7-chloro-8-fluoroimidazo[1,5-a]pyridin-1-yl)methyl)-1-((6-cyclopropylbenzo[b]thiophen-2-yl)methyl)-1H-1,2,3-triazole-4-carboxamide]	–	10 to 100
O=C(NCc1ncn2ccc(Cl)c(F)c12)c1cn(Cc2[nH]c3cc(C4CC4)ccc3c2C(=O)O)nn1 [Example I-274, 2-((4-(((7-chloro-8-fluoroimidazo[1,5-a]pyridin-1-yl)methyl)carbamoyl)-1H-1,2,3-triazol-1-yl)methyl)-6-cyclopropyl-1H-indole-3-carboxylic acid]	–	100 to 2000
CC(C)(O)c1cc(C2CC2)cn2cc(Cn3cc(C(=O)NCc4ncn5ccc(Cl)cc45)cn3)nc12 [Example I-104b, N-((7-chloroimidazo[1,5-a]pyridin-1-yl)methyl)-1-((6-cyclopropyl-8-(2-hydroxypropan-2-yl)imidazo[1,2-a]pyridin-2-yl)methyl)-1H-pyrazole-4-carboxamide]	–	< 1
O=C(NCc1ncn2ccc(Cl)c(F)c12)c1cn(Cc2cn3cc(C4CC4)cc(-c4cncs4)c3n2)nn1 [Example I-263, N-((7-chloro-8-fluoroimidazo[1,5-a]pyridin-1-yl)methyl)-1-((6-cyclopropyl-8-(thiazol-5-yl)imidazo[1,2-a]pyridin-2-yl)methyl)-1H-1,2,3-triazole-4-carboxamide]	–	< 1
O=C(NCc1ncn2ccc(Cl)cc12)c1cnn(Cc2cn3c(C4CC4)cccc3n2)c1 [Example I-22, N-((7-chloroimidazo[1,5-a]pyridin-1-yl)methyl)-1-((5-cyclopropylimidazo[1,2-a]pyridin-2-yl)methyl)-1H-pyrazole-4-carboxamide]	–	100 to 2000
O=C(NCc1ncn2ccc(Cl)c(F)c12)c1cn(Cc2cc3ccc(Cl)cc3s2)nn1 [Example I-234, N-((7-chloro-8-fluoroimidazo[1,5-a]pyridin-1-yl)methyl)-1-((6-chlorobenzo[b]thiophen-2-yl)methyl)-1H-1,2,3-triazole-4-carboxamide]	–	10 to 100
N#Cc1cc(C2CC2)cn2cc(Cc3nnc(C(=O)NCc4ncn5ccc(Cl)cc45)o3)nc12 [Example I-128, N-((7-chloroimidazo[1,5-a]pyridin-1-yl)methyl)-5-((8-cyano-6-cyclopropylimidazo[1,2-a]pyridin-2-yl)methyl)-1,3,4-oxadiazole-2-carboxamide]	–	< 1
Cc1ncn(-c2cc(C3CC3)cn3cc(Cn4cc(C(=O)NCc5ncn6ccc(Cl)c(F)c56)nn4)nc23)n1 [Example I-258, N-((7-chloro-8-fluoroimidazo[1,5-a]pyridin-1-yl)methyl)-1-((6-cyclopropyl-8-(3-methyl-1H-1,2,4-triazol-1-yl)imidazo[1,2-a]pyridin-2-yl)methyl)-1H-1,2,3-triazole-4-carboxamide]	–	< 1
O=C(NCc1ncn2ccc(Cl)c(F)c12)c1cn(Cc2nc3cc(C4CC4)cc(Cl)n3n2)nn1 [Example I-255, 1-((5-chloro-7-cyclopropyl-[1,2,4]triazolo[1,5-a]pyridin-2-yl)methyl)-N-((7-chloro-8-fluoroimidazo[1,5-a]pyridin-1-yl)methyl)-1H-1,2,3-triazole-4-carboxamide]	–	< 1
CCOC(=O)CC(c1cn2cc(C3CC3)ccc2n1)n1cc(C(=O)NCc2ncn3ccc(Cl)c(F)c23)nn1 (centres unmarked) [Example I-227a, ethyl 3-(4-(((7-chloro-8-fluoroimidazo[1,5-a]pyridin-1-yl)methyl)carbamoyl)-1H-1,2,3-triazol-1-yl)-3-(6-cyclopropylimidazo[1,2-a]pyridin-2-yl)propanoate]	–	10 to 100
O=C(NCc1ncn2ccc(Cl)cc12)c1cnn(Cc2cn3cc(C4CCC4)ccc3n2)c1 [Example I-61, N-((7-chloroimidazo[1,5-a]pyridin-1-yl)methyl)-1-((6-cyclobutylimidazo[1,2-a]pyridin-2-yl)methyl)-1H-pyrazole-4-carboxamide]	–	1 to 10
CCc1ccn2cnc(CNC(=O)c3cnn(Cc4cn5cc(C6CC6)ccc5n4)c3)c2c1 [Example I-67, 1-((6-cyclopropylimidazo[1,2-a]pyridin-2-yl)methyl)-N-((7-ethylimidazo[1,5-a]pyridin-1-yl)methyl)-1H-pyrazole-4-carboxamide]	–	10 to 100
CCOC(=O)C(C)(C)Cc1cc(C2CC2)cn2cc(Cn3cc(C(=O)NCc4ncn5ccc(Cl)cc45)cn3)nc12 [Example I-162, ethyl 3-(2-((4-(((7-chloroimidazo[1,5-a]pyridin-1-yl)methyl)carbamoyl)-1H-pyrazol-1-yl)methyl)-6-cyclopropylimidazo[1,2-a]pyridin-8-yl)-2,2-dimethylpropanoate]	–	< 1
